Results reported in patent US9884821B2, “N1-cyclic amine-N5-substituted biguanide derivatives, methods of preparing the same and pharmaceutical composition comprising the same” (IMMUNOMET THERAPEUTICS INC., priority 2013, dated 2018).

Key:
HCT116 cells = assay: Effect of inhibiting cancer cell proliferation (MTT) in HCT116 cells; type: cell-based, human; conditions: Homo sapiens, HCT-116, 48 h; for inhibition at 100 µM: read-out: Cell growth inhibition (%) at 100 μM; for inhibition at 25 µM: read-out: Cell growth inhibition (%) at 25 μM
Text: HCT116 cells derived from human colorectal cancer were used, and an effect of inhibiting cancer cell proliferation of the biguanide derivative was confirmed by measuring a concentration value (cell growth inhibition concentration, GIC50) at which cell growth was inhibited by 50% using a 3-(4,5-dimethylthiazol-2-yl)-2,5-diphenyltetrazolium bromide (MTT) reagent.
First, HCT116 cells (purchased from the KCLB) were put on a 96-well plate and cultured in a DMEM medium supplemented with 10% fatal bovine serum (commercially available from Gibco Life Technologies (US)) for 16 hours so that approximately 5,000 cells were counted in each well. Subsequently, to obtain the GIC50 value of each compound, the culture media were treated with 100 μM, 25 μM, 6.25 μM, 1.56 μM or 0.39 μM of the compound, and then cultured for 48 hours. In order to determine whether the cells survived after treatment with the compounds, MTT (commercially available from AMRESCO (US)) was added to the culture media which were then cultured for another 3 hours. Formed formazane crystals were dissolved using dimethyl sulfoxide (DMSO) and the absorbance of the resulting solution was measured at 560 nm. After the 48-hour culture, a ratio of a living cell count on a well plate treated with the compounds synthesized in the Examples to a cell count cultured on a well plate not treated with the compound was indicated as cell viability (%) according to the concentration of each treated compound. The cell viability (%) was used to plot a cell viability curve graph and calculate a concentration (GIC50) value of the compound at which the growth was inhibited by 50%, thereby confirming the inhibition effect of cancer cell proliferation.

AMPK = AMPK activation effect (AMPK [pT172] ELISA) in MCF7 cells; type: cell-based, human; conditions: 24 hours; for AMPK activation effect (%) 10 μM / AMPK activation effect (%) 50 μM / AMPK activation effect (%) 5 μM: AMPKα Thr172 phosphorylation relative to untreated cells; for AC150: concentration at which AMPK activation reached 150%
Experimental: ELISA kit (Invitrogen, Catalog No. KH00651).
MCF7 cells were cultured in a DMEM medium supplemented with 10% fatal bovine serum (commercially available from Gibco Life Technologies (US)). Thereafter, the cultured MCF7 cells were put into a 6-well plate with approximately 5×10^5 cells per well, and cultured in an incubator supplied with 5% CO2. Culture media were treated with the derivatives synthesized in the Examples at concentrations of 5, 10 and 50 uM, and then cultured for 24 hours. […] Subsequently, the cells were lysed according to a method presented in the operation manual of the AMPK [pT172] ELISA kit, and 20 μg of a cell lysate was then yielded through protein assay. Thereafter, the AMPK activation effect was obtained by determining a degree of phosphorylation of a 172nd threonine residue (Thr172) of the AMPKα from the cell lysate according to the method presented in the operation manual of the AMPK [pT172] ELISA kit.

With `CCCCCCNC(=N)NC(=N)N1CC=CCC1.Cl` [Example 53, N1-1,2,3,6-tetrahydropyridine-N5-hexyl biguanide hydrochloride] the GI50 (HCT116 cells) was 43.7 µM, the inhibition at 100 µM (HCT116 cells) was 97.9% and the “AMPK activation effect (%) 10 μM” value (AMPK) was 311%. For the same molecule, the “AMPK activation effect (%) 50 μM” value (AMPK) was 589% and the AC150 (AMPK) was 2.3 µM.

With `Cl.N=C(NCc1ccc(OC(F)(F)F)cc1)NC(=N)N1CC=CCC1` [Example 54, N1-1,2,3,6-tetrahydropyridine-N5-(4-trifluoromethoxy)benzyl biguanide hydrochloride] the GI50 (HCT116 cells) was 14.6 µM, the inhibition at 100 µM (HCT116 cells) was 98.1% and the “AMPK activation effect (%) 10 μM” value (AMPK) was 545%. The “AMPK activation effect (%) 50 μM” value (AMPK) was 650% and the AC150 (AMPK) was 0.87 µM.

`Cl.N=C(NCc1cccc(OC(F)(F)F)c1)NC(=N)N1CC=CCC1` [Example 55, N1-1,2,3,6-tetrahydropyridine-N5-(3-trifluoromethoxy)benzyl biguanide hydrochloride] was tested, and the GI50 (HCT116 cells) was 22.8 µM, the inhibition at 100 µM (HCT116 cells) was 97.9% and the “AMPK activation effect (%) 10 μM” value (AMPK) was 389%. For the same molecule, the “AMPK activation effect (%) 50 μM” value (AMPK) was 608% and the AC150 (AMPK) was 2.1 µM.

`Cl.N=C(NCc1ccc(C(F)(F)F)cc1)NC(=N)N1CC=CCC1` [Example 56, N1-1,2,3,6-tetrahydropyridine-N5-(4-trifluoromethyl)benzyl biguanide hydrochloride] was tested, and the GI50 (HCT116 cells) was 26.9 µM, the inhibition at 100 µM (HCT116 cells) was 97.7% and the “AMPK activation effect (%) 10 μM” value (AMPK) was 389%. For the same molecule, the “AMPK activation effect (%) 50 μM” value (AMPK) was 671% and the AC150 (AMPK) was 2.1 µM.

In the case of `Cl.N=C(NCc1cccc(C(F)(F)F)c1)NC(=N)N1CC=CCC1` [Example 57, N1-1,2,3,6-tetrahydropyridine-N5-(3-trifluoromethyl)benzyl biguanide hydrochloride], the GI50 (HCT116 cells) is reported as 26.9 µM, the inhibition at 100 µM (HCT116 cells) is reported as 97.8% and the “AMPK activation effect (%) 10 μM” value (AMPK) is reported as 279%. For the same molecule, the “AMPK activation effect (%) 50 μM” value (AMPK) was 579% and the AC150 (AMPK) was 2.7 µM.

For `Cl.N=C(NCc1ccc(Cl)c(C(F)(F)F)c1)NC(=N)N1CC=CCC1` [Example 58, N1-1,2,3,6-tetrahydropyridine-N5-(4-chloro, 3-trifluoromethyl)benzyl biguanide hydrochloride], the GI50 (HCT116 cells) was 7.9 µM, the inhibition at 100 µM (HCT116 cells) was 98.4% and the “AMPK activation effect (%) 10 μM” value (AMPK) was 500%. It also gave an AC150 (AMPK) of 1.8 µM.

`CCCCNC(=N)NC(=N)N1CC=CCC1.Cl` [Example 59, N1-1,2,3,6-tetrahydropyridine-N5-butyl biguanide hydrochloride] was tested, and the GI50 (HCT116 cells) was 141 µM, the inhibition at 100 µM (HCT116 cells) was 44.5% and the “AMPK activation effect (%) 10 μM” value (AMPK) was 104%. The “AMPK activation effect (%) 50 μM” value (AMPK) was 283% and the AC150 (AMPK) was 16.6 µM.

`CCCNC(=N)NC(=N)N1CC=CCC1.Cl` [Example 60, N1-1,2,3,6-tetrahydropyridine-N5-propyl biguanide hydrochloride] was tested, and the GI50 (HCT116 cells) was 99.8 µM, the inhibition at 100 µM (HCT116 cells) was 50.1% and the “AMPK activation effect (%) 10 μM” value (AMPK) was 108%. For the same molecule, the “AMPK activation effect (%) 50 μM” value (AMPK) was 338% and the AC150 (AMPK) was 12.4 µM.

For `Cl.N=C(N)NC(=N)N1CC=CCC1` [Example 61, N1-1,2,3,6-tetrahydropyridine biguanide hydrochloride], the GI50 (HCT116 cells) was > 100 µM, the inhibition at 100 µM (HCT116 cells) was 10.5% and the “AMPK activation effect (%) 10 μM” value (AMPK) was 123%. The “AMPK activation effect (%) 50 μM” value (AMPK) was 132% and the AC150 (AMPK) was >50 µM.

In the case of `CC1CCCN(C(=N)NC(=N)NCc2cccc(C(F)(F)F)c2)C1.Cl` (stereo not shown) [Example 65, N1-(3-methyl)piperidine-N5-(3-trifluoromethyl)benzyl biguanide hydrochloride], the GI50 (HCT116 cells) is reported as 18.3 µM, the inhibition at 25 µM (HCT116 cells) is reported as 66.7% and the “AMPK activation effect (%) 5 μM” value (AMPK) is reported as 147%. For the same molecule, the “AMPK activation effect (%) 10 μM” value (AMPK) was 274% and the AC150 (AMPK) was 2.8 µM.

With `CC1CCCN(C(=N)NC(=N)NCc2ccc(Cl)cc2)C1.Cl` (stereo not shown) [Example 66, N1-(3-methyl)piperidine-N5-(4-chloro)benzyl biguanide hydrochloride] the GI50 (HCT116 cells) was 18.5 µM, the inhibition at 25 µM (HCT116 cells) was 67.4% and the “AMPK activation effect (%) 5 μM” value (AMPK) was 101%. The “AMPK activation effect (%) 10 μM” value (AMPK) was 204% and the AC150 (AMPK) was 6.2 µM.

With `CC1CCCN(C(=N)NC(=N)Nc2ccc(F)cc2)C1.Cl` (stereo not shown) [Example 67, N1-(3-methyl)piperidine-N5-(4-fluoro)phenyl biguanide hydrochloride] the GI50 (HCT116 cells) was 9.2 µM, the inhibition at 25 µM (HCT116 cells) was 100% and the “AMPK activation effect (%) 5 μM” value (AMPK) was 258%. The “AMPK activation effect (%) 10 μM” value (AMPK) was 427% and the AC150 (AMPK) was 1.6 µM.

`CC1CCCN(C(=N)NC(=N)Nc2ccc(Br)cc2)C1.Cl` (stereo not shown) [Example 68, N1-(3-methyl)piperidine-N5-(4-bromo)phenyl biguanide hydrochloride] was tested, and the GI50 (HCT116 cells) was 45.3 µM, the inhibition at 25 µM (HCT116 cells) was 29.4% and the “AMPK activation effect (%) 5 μM” value (AMPK) was 52%. The “AMPK activation effect (%) 10 μM” value (AMPK) was 136% and the AC150 (AMPK) was 13.7 µM.

In the case of `CC1CCCN(C(=N)NC(=N)Nc2ccc(Cl)c(C(F)(F)F)c2)C1.Cl` (stereo not shown) [Example 69, N1-(3-methyl)piperidine-N5-(4-chloro, 3-trifluoromethyl)phenyl biguanide hydrochloride], the GI50 (HCT116 cells) is reported as 1.9 µM, the inhibition at 25 µM (HCT116 cells) is reported as 100% and the “AMPK activation effect (%) 5 μM” value (AMPK) is reported as 307%. The “AMPK activation effect (%) 10 μM” value (AMPK) was 650% and the AC150 (AMPK) was 1.2 µM.

`CC1CCCN(C(=N)NC(=N)Nc2ccc(C(F)(F)F)c(F)c2)C1.Cl` (stereo not shown) [Example 70, N1-(3-methyl)piperidine-N5-(3-fluoro, 4-trifluoromethyl)phenyl biguanide hydrochloride] was tested, and the GI50 (HCT116 cells) was 3.9 µM, the inhibition at 25 µM (HCT116 cells) was 100% and the “AMPK activation effect (%) 5 μM” value (AMPK) was 365%. The “AMPK activation effect (%) 10 μM” value (AMPK) was 602% and the AC150 (AMPK) was 0.9 µM.

With `CC1CCCN(C(=N)NC(=N)Nc2ccc(F)c(C(F)(F)F)c2)C1.Cl` (stereo not shown) [Example 71, N1-(3-methyl)piperidine-N5-(4-fluoro, 3-trifluoromethyl)phenyl biguanide hydrochloride] the GI50 (HCT116 cells) was 5.7 µM, the inhibition at 25 µM (HCT116 cells) was 100% and the “AMPK activation effect (%) 5 μM” value (AMPK; hydrochloride) was 259%. The “AMPK activation effect (%) 10 μM” value (AMPK; hydrochloride) was 430% and the AC150 (AMPK; hydrochloride) was 1.6 µM.

In the case of `CC1CCCCN1C(=N)NC(=N)Nc1ccc(OC(F)(F)F)cc1.Cl` (stereo not shown) [Example 72, N1-(2-methyl)piperidine-N5-(4-trifluoromethoxy)phenyl biguanide hydrochloride], the GI50 (HCT116 cells) is reported as 8 µM, the inhibition at 25 µM (HCT116 cells) is reported as 100% and the “AMPK activation effect (%) 5 μM” value (AMPK) is reported as 210%. For the same molecule, the “AMPK activation effect (%) 10 μM” value (AMPK) was 386% and the AC150 (AMPK) was 2.0 µM.

In the case of `CC1CCCCN1C(=N)NC(=N)Nc1cccc(OC(F)(F)F)c1.Cl` (stereo not shown) [Example 73, N1-(2-methyl)piperidine-N5-(3-trifluoromethoxy)phenyl biguanide hydrochloride], the GI50 (HCT116 cells) is reported as 6.7 µM, the inhibition at 25 µM (HCT116 cells) is reported as 100% and the “AMPK activation effect (%) 5 μM” value (AMPK) is reported as 215%. The “AMPK activation effect (%) 10 μM” value (AMPK) was 384% and the AC150 (AMPK) was 2.0 µM.

For `CC1CCCCN1C(=N)NC(=N)Nc1ccc(C(F)(F)F)cc1.Cl` (stereo not shown) [Example 74, N1-(2-methyl)piperidine-N5-(4-trifluoromethyl)phenyl biguanide hydrochloride], the GI50 (HCT116 cells) was 8.7 µM, the inhibition at 25 µM (HCT116 cells) was 100% and the “AMPK activation effect (%) 5 μM” value (AMPK) was 199%. The “AMPK activation effect (%) 10 μM” value (AMPK) was 410% and the AC150 (AMPK) was 2.0 µM.

In the case of `CC1CCCN(C(=N)NC(=N)Nc2ccc(OC(F)(F)F)c(F)c2)C1.Cl` (stereo not shown) [Example 75, N1-(3-methyl)piperidine-N5-(3-fluoro, 4-trifluoromethoxy)phenyl biguanide hydrochloride], the GI50 (HCT116 cells) is reported as 9.3 µM, the inhibition at 25 µM (HCT116 cells) is reported as 100% and the “AMPK activation effect (%) 5 μM” value (AMPK) is reported as 133%. For the same molecule, the “AMPK activation effect (%) 10 μM” value (AMPK) was 259% and the AC150 (AMPK) was 3.9 µM.

In the case of `CC1CCCCN1C(=N)NC(=N)Nc1ccc(OC(F)(F)F)c(F)c1.Cl` (stereo not shown) [Example 76, N1-(2-methyl)piperidine-N5-(3-fluoro, 4-trifluoromethoxy)phenyl biguanide hydrochloride], the GI50 (HCT116 cells) is reported as 5.8 µM, the inhibition at 25 µM (HCT116 cells) is reported as 100% and the “AMPK activation effect (%) 5 μM” value (AMPK) is reported as 242%. The “AMPK activation effect (%) 10 μM” value (AMPK) was 375% and the AC150 (AMPK) was 1.7 µM.

In the case of `CC1CCCCN1C(=N)NC(=N)Nc1ccc(Cl)cc1.Cl` (stereo not shown) [Example 77, N1-(2-methyl)piperidine-N5-(4-chloro)phenyl biguanide hydrochloride], the GI50 (HCT116 cells) is reported as 11.3 µM, the inhibition at 25 µM (HCT116 cells) is reported as 100% and the “AMPK activation effect (%) 5 μM” value (AMPK) is reported as 154%. The “AMPK activation effect (%) 10 μM” value (AMPK) was 212% and the AC150 (AMPK) was 4.5 µM.
